Experiments:
Format in all cases: in vivo
[1] = test system: Phytophthora infestans (Tomatoes); conditions: 100 ppm a.i. foliar spray or root drench (approx. 40 ppm in dry soil), one or two days before inoculation
[2] = test system: Thanatephorus cucumeries (Rice); test: Foliar fungal disease test on plants: Thanatephorus cucumeries (Rice); conditions: 100 ppm a.i. foliar spray or root drench (approx. 40 ppm in dry soil), one or two days before inoculation
[3] = test system: Plasmopara viticola (Vines); test: Foliar fungal disease test on plants: Plasmopara viticola (Vines); conditions: 100 ppm a.i. foliar spray or root drench (approx. 40 ppm in dry soil), one or two days before inoculation
[4] = test system: Erysiphe graminis tritici (Wheat); test: Foliar fungal disease test on plants: Erysiphe graminis tritici (Wheat); conditions: 100 ppm a.i. foliar spray or root drench (approx. 40 ppm in dry soil); plants inoculated 24 hours before treatment
[5] = test system: Venturia inaequalis (Apples); test: Foliar fungal disease test on plants: Venturia inaequalis (Apples); conditions: 100 ppm a.i. foliar spray or root drench (approx. 40 ppm in dry soil), one or two days before inoculation
Septoria nodorum (Wheat) = test: Foliar fungal disease test on plants: Septoria nodorum (Wheat); conditions: 100 ppm a.i. foliar spray or root drench (approx. 40 ppm in dry soil), one or two days before inoculation
[6] = test system: Puccinia recondita (Wheat); test: Foliar fungal disease test on plants: Puccinia recondita (Wheat)
[7] = test system: Pyricularia oryzae (Rice); conditions: 100 ppm a.i. foliar spray or root drench (approx. 40 ppm in dry soil), one or two days before inoculation
[8] = 100 ppm a.i. foliar spray or root drench, plants inoculated with Puccinia recondita 48 hours before treatment

| Structure (SMILES) | POCO (Percentage of Control) disease level, Phytophthora infestans (Tomatoes) [1] | POCO (Percentage of Control) disease level, Thanatephorus cucumeries (Rice) [2] | POCO (Percentage of Control) disease level, Plasmopara viticola (Vines) [3] | POCO (Percentage of Control) disease level, Erysiphe graminis tritici (Wheat) [4] | POCO (Percentage of Control) disease level, Venturia inaequalis (Apples) [5] | POCO (Percentage of Control) disease level, Septoria nodorum (Wheat) (Septoria nodorum (Wheat)) | POCO (Percentage of Control) disease level, Puccinia recondita (Wheat) [6, 8] | POCO (Percentage of Control) disease level, Pyricularia oryzae (Rice) [7] | POCO (Percentage of Control) disease level, Puccinia recondita (Wheat) ([6]; 100 ppm a.i. foliar spray or root drench (approx. 40 ppm in dry soil), one or two days before inoculation) |
| --- | --- | --- | --- | --- | --- | --- | --- | --- | --- |
| COC=C(C(=O)OC)c1ccccc1COC(=O)N(Cc1ccccc1)c1cccc(F)c1 [8 (97)] | 90 (90 and 94 = 60.1-100% disease present) | 90 (90 and 94 = 60.1-100% disease present) | 0 (0 = 0% disease present) | 90 (90 and 94 = 60.1-100% disease present) | 30 (30 = 20.1-30% disease present) | 90 (90 and 94 = 60.1-100% disease present) | 90+ (90 and 94 = 60.1-100% disease present) | 30 (30 = 20.1-30% disease present) |  |
| CCN(C(=O)OCc1ccccc1C(=COC)C(=O)OC)c1ccc(F)cc1F [24 (3)] | 60 (60 = 30.1-60% disease present) | 0 (0 = 0% disease present) | 0 (0 = 0% disease present) | 0 (0 = 0% disease present) | 0 (0 = 0% disease present) | 0 (0 = 0% disease present) | 0+ (0 = 0% disease present) | 10 (10 = 5.1-10% disease present) |  |
| CO/C=C(/C(=O)OC)c1ccccc1COC(=O)Nc1ccccc1 [5 (1), (E)-methyl 3-methoxy-2-[2-((phenyl)carbamoyloxymethyl)phenyl]propenoate] | 60 (60 = 30.1-60% disease present) | 60 (60 = 30.1-60% disease present) | 5 (5 = 3.1-5% disease present) | 60 (60 = 30.1-60% disease present) | 30 (30 = 20.1-30% disease present) | 30 (30 = 20.1-30% disease present) |  | 10 (10 = 5.1-10% disease present) | 60 (60 = 30.1-60% disease present) |
| COC=C(C(=O)OC)c1ccccc1COC(=O)N(C)c1ccc(F)c(F)c1 [28 (2)] | 10 (10 = 5.1-10% disease present) | 0 (0 = 0% disease present) | 0 (0 = 0% disease present) | 0 (0 = 0% disease present) | 0 (0 = 0% disease present) | 0 (0 = 0% disease present) | 0+ (0 = 0% disease present) | 0 (0 = 0% disease present) |  |

Source: patent publication US6465457B1 (priority 1991, dated 2002)
